The text below walks through data of patent publication US5115099A, “Substrates for determination of enzyme activity and intermediates for synthesis of the substrates as well as process for producing the intermediates” (Nitto Boseki Co., Ltd., priority 1988, dated 1992).

The target in series [1] is T1, Trypsin (Bos taurus, UniProt P00760).
T1 construct: purchased Boehringer
T1 sequence (P00760 24-246): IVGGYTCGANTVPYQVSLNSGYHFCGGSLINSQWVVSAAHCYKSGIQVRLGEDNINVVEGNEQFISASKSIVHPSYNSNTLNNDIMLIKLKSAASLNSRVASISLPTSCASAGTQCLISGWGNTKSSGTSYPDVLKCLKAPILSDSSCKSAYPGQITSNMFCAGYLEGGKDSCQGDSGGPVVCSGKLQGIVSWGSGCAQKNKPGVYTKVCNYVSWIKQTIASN
The series is described as follows: Relative reactivity of substrate with trypsin (absorbancy at 405 nm). Format: biochemical, Bovine. The following applies: substrate 10 mM/l; trypsin 0.07 U/ml; Tris 50 mmol, NaCl 150 mmol, pH 8.1; 37° C. 10 minutes; absorbancy 405 nm; relative to S-2222 10 mM = 1.0. The method, then: (§1) Specificity of the synthesized new substrate was examined by reacting with each enzyme. Details of reagents used are as describved below.
(§2) (2) Buffer: Kind of buffer, NaCl and its concentration and pH (25° C.) were set as shown below depending upon enzyme. […]
(§3) (3) Enzyme used: Enzyme used and its source, etc. are as follows. […]
(§4) (4) Terminate solution: 10% acetic acid aqueous solution.
Buffer, 0.5 ml and 0.1 ml of substrate solution are charged in a silicone-treated hard glass test tube or plastic test tube. The mixture is previously heated for 10 minutes in a thermostat at 37° C. Then, 0.05 ml of enzyme reagent is added to the mixture to perform enzyme reaction at 37° C. for 10 minutes.
Accurately 10 minutes after, 2.5 ml of the terminate solution is added to stop the enzyme reaction. Then the reaction mixture is allowed to stand at 37° C for 10 minutes and its absorbancy is measured at 405 nm.
(§5) Values in the tables indicate relative values when absorbancy of substrate S-2222, 10 mM, was made 1.0.

The target of series [2] is T2, α2 -macroglobulin-trypsin complex (α2 M-Try) (Bos taurus, UniProt P00760).
T2 construct: purchased SIGMA (Try); Boehringer (α2 M)
T2 sequence (P00760 24-246): T1 sequence (P00760 24-246)
T2 sequence (Q7SIH1 24-1510 partner): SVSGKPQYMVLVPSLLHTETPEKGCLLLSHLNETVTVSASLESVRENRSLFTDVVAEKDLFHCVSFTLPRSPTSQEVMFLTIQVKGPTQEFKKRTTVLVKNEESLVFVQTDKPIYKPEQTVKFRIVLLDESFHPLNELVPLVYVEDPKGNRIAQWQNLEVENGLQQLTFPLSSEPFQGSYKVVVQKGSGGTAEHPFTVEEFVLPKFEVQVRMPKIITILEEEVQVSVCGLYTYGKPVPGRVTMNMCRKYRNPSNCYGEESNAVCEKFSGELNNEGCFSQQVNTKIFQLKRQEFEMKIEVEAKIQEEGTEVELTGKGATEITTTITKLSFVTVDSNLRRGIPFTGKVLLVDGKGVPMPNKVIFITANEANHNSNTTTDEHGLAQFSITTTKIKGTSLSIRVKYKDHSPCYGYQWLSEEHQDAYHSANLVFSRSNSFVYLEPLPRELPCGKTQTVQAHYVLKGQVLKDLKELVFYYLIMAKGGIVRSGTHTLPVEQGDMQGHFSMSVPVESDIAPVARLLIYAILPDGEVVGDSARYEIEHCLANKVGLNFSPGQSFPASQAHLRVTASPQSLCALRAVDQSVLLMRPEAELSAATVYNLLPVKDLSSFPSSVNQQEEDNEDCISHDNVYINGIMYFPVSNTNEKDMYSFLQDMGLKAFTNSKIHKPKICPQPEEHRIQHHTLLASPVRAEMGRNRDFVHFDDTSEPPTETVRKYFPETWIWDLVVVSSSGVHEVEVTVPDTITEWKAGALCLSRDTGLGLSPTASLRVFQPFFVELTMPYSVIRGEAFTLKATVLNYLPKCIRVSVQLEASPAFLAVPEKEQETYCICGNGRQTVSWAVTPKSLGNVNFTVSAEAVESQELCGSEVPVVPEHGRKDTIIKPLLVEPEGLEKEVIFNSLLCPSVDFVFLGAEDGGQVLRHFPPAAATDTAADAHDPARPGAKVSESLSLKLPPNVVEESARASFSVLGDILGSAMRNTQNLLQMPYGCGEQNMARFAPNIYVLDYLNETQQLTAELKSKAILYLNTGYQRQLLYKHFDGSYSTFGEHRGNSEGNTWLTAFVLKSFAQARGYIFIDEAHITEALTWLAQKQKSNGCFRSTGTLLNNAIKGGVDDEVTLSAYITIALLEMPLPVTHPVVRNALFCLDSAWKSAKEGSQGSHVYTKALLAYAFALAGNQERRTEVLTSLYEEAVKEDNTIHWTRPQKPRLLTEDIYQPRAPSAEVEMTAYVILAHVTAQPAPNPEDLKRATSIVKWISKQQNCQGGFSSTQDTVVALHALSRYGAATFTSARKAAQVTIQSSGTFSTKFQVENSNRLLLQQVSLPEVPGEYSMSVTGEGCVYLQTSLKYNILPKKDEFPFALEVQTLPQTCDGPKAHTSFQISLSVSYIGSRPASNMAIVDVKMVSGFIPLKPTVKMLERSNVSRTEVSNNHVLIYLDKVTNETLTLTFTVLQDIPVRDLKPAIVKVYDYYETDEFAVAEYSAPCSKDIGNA
The series is described as follows: Relative reactivity of substrate with α2 M-Try (absorbancy at 405 nm). Conditions: substrate 10 mM/l; α2 M-Try 1/20 dilution; Bistrispropane 100 mmol, NaCl 150 mmol, pH 8.7; 37° C. 10 minutes; absorbancy 405 nm; relative to S-2222 10 mM = 1.0. Format: biochemical, Bovine. As for the experimental part: as §1, §2, §3, §4
Buffer, 0.5 ml and 0.1 ml of substrate solution are charged in a silicone-treated hard glass test tube or plastic test tube. The mixture is previously heated for 5 minutes in a thermostat at 37° C.
Then, 0.05 ml of enzyme reagent is added to the mixture to perform enzyme reaction at 37° C. for 10 minutes.
Accurately 10 minutes after, 1.0 ml of the terminate solution is added to stop the enzyme reaction. Then the reaction mixture is allowed to stand at 37° C. for 10 minutes and its absorbancy is measured at 405 nm.
as §5

Series [3] concerns Normal serum. The series is described as follows: Relative reactivity of substrate with normal serum (absorbancy at 405 nm). Format: biochemical. Conditions: substrate 10 mM/l; undiluted human normal serum; Tris 50 mmol, NaCl 150 mmol, pH 8.5; 37° C. 5 minutes; absorbancy 405 nm; relative to S-2222 10 mM = 1.0. As for the experimental part: as §1, §2, §3
Normal Human -- -- undiluted
as §4
Buffer, 0.5 ml and 0.1 ml of substrate solution are charged in a silicone-treated hard glass test tube or plastic test tube. The mixture is previously heated for 5 minutes in a thermostat at 37° C. Then, 0.1 ml of normal serum is added to the mixture to perform enzyme reaction at 37° C. for 5 minutes.
Accurately 5 minutes after, 2.0 ml of the terminate solution is added to stop the enzyme reaction. Then the reaction mixture is allowed to stand at 37° C. for 10 minutes and its absorbancy is measured at 405 nm.
as §5

Series [4] is described as follows: Solubility of the substrates in water. Format: physicochemical. An excerpt: (B) Solubility of the substrates of this invention and known substrates in water were examined.

Counter-ions that a name gives are not always drawn. Where a SMILES comes first, the peptide text is derived from it.

Regarding `CC(C)[C@H](NC(=O)OCc1ccccc1)C(=O)NCC(=O)N[C@@H](CCCNC(=N)N)C(=O)Nc1ccc([N+](=O)[O-])cc1` [CHR-TRY, Z-Val-Gly-Arg-pNA-HCl, reference compound] (HELM PEPTIDE1{[O=C(OCc1ccccc1)[*:2]].V.G.R.[O=[N+]([O-])c1ccc(N[*:1])cc1]}$$$$V2.0), in series [1], the “Relative Reactivity to Enzyme (relative value of absorbance) Try” value was found to be 0.50. Further, the “Relative Reactivity to Enzyme (relative value of absorbance) α2 M-Try” value in series [2] was determined as 0.73. In addition, the “Relative Reactivity to Enzyme (relative value of absorbance) Normal Serum” value in series [3] is 1.70. Also, the Solubility entry in series [4] is “insoluble”.

Take `Cl.Cl.NC(N)=NCCC[C@H](NC(=O)[C@@H]1CCCCN1C(=O)[C@H](N)Cc1ccccc1)C(=O)Nc1ccc([N+](=O)[O-])cc1` [S-2238, HDPhePipArgpNA.2HCl, reference compound]: in series [1], the “Relative Reactivity to Enzyme (relative value of absorbance) Try” value stood at 0.39. In addition, in series [2], the “Relative Reactivity to Enzyme (relative value of absorbance) α2 M-Try” value was 0.68. The “Relative Reactivity to Enzyme (relative value of absorbance) Normal Serum” value in series [3] came to 5.50.

For `Cl.Cl.NC(N)=NCCC[C@H](NC(=O)CNC(=O)[C@H](N)CCC(=O)OCc1ccccc1)C(=O)Nc1ccc([N+](=O)[O-])cc1` [Substrate No. 2] (HELM PEPTIDE1{[dE].G.R.[O=[N+]([O-])c1ccc(N[*:1])cc1]}|CHEM1{[c1ccc(CO[*:1])cc1]}$PEPTIDE1,CHEM1,1:R3-1:R1$$$V2.0), in series [1], the “Relative Reactivity to Enzyme (relative value of absorbance) Try” value came out at 0.71. Moreover, the “Relative Reactivity to Enzyme (relative value of absorbance) α2 M-Try” value in series [2] came out at 1.01. The “Relative Reactivity to Enzyme (relative value of absorbance) Normal Serum” value in series [3] stood at 0.12.

Turning to `CC(C)OC(=O)CC[C@@H](N)C(=O)NCC(=O)N[C@@H](CCCN=C(N)N)C(=O)Nc1ccc([N+](=O)[O-])cc1.Cl.Cl` [Substrate No. 3] (HELM PEPTIDE1{[dE].G.R.[O=[N+]([O-])c1ccc(N[*:1])cc1]}|CHEM1{[CC(C)O[*:1]]}$PEPTIDE1,CHEM1,1:R3-1:R1$$$V2.0), the “Relative Reactivity to Enzyme (relative value of absorbance) Try” value in series [1] came out at 0.67. Moreover, in series [2], the “Relative Reactivity to Enzyme (relative value of absorbance) α2 M-Try” value was 1.20. Also, the “Relative Reactivity to Enzyme (relative value of absorbance) Normal Serum” value in series [3] is on record as 0.41.

`CCCN(CCC)C(=O)CC[C@@H](N)C(=O)NCC(=O)N[C@@H](CCCN=C(N)N)C(=O)Nc1ccc([N+](=O)[O-])cc1.Cl.Cl` [Substrate No. 21]: the “Relative Reactivity to Enzyme (relative value of absorbance) Try” value in series [1] is 0.74. Besides, the “Relative Reactivity to Enzyme (relative value of absorbance) α2 M-Try” value in series [2] stood at 1.46. Also, in series [3], the “Relative Reactivity to Enzyme (relative value of absorbance) Normal Serum” value stood at 0.20.

Consider “Bz-Ile-Glu(OR)-Gly-Arg-pNA.HCl; R=H and CH3 [S-2222, reference compound]”, for which the “Relative Reactivity to Enzyme (relative value of absorbance) Try” value in series [1] came out at 1.0. In series [2], the “Relative Reactivity to Enzyme (relative value of absorbance) α2 M-Try” value is 1.0. Moreover, the “Relative Reactivity to Enzyme (relative value of absorbance) Normal Serum” value in series [3] was 1.0. In series [4], this molecule came in with a Solubility of 6 mM/l.

With “H-D-Glu(OCH.(C2 H5)2)-Gly-Arg-ANBS.2HCl [Substrate No. 1]”, the “Relative Reactivity to Enzyme (relative value of absorbance) Try” value in series [1] was found to be 0.84. Further, the “Relative Reactivity to Enzyme (relative value of absorbance) α2 M-Try” value in series [2] is on record as 1.19. The “Relative Reactivity to Enzyme (relative value of absorbance) Normal Serum” value in series [3] came to 0.03.
